According to patent publication US20250282714A1, “COMPOSITIONS FOR AND METHODS OF MODULATING RNA STABILITY” (Duke University, priority 2022, published 2025):
Several values for one entry are separate records, joined by “and”; a condition that tells them apart may be missing. Equal values may be shown once. Entries after “also recorded” stand apart in the source; their conditions may differ.

Experiments:
MALAT1 triple helix [1] = test: RNase A enzymatic degradation assay; assay type: biochemical, human; conditions: for stabilizing / destabilizing compound (as listed 'in an aspect'): stabilizing = less, destabilizing = more degradation in an enzymatic assay than control
Description: The procedure was adapted from a published protocol for exonucleolytic enzymatic degradation assay. (Donlic A, et al. (2020) Nucleic Acids Res. 48(14):7653-7664). The MALAT1 destabilizing small molecules published by Le Grice (Abulwerdi F A, et al. (2019) ACS Chem Biol. 14(2):223-235) and co-workers SM5 and SM16 were purchased from ChemBridge. For a typical 70 μL reaction, […] of MALAT1 triple helix RNA was annealed in the same buffer used for IDA and DSF experiments (20 mM HEPES-KOH, 52 mM KCl, 0.1 mM MgCl2, pH=7.4) by heating at 95° C. for 3 minutes, snap-cooling on ice for 10 minutes, and leaving the solution at room temperature for 1 hr.
RNase A enzyme (ThermoFisher) was diluted to 1.46 nM and incubated with 1 M NaCl for 30-35 minutes to achieve ssRNA selectivity as reported. (Struhl K, et al. (1989) Current Protocols in Molecular Biology. 8(1):3.13.1-3.13.3). Next, the RNA was mixed with 0.2 μM of a GC-rich DNA duplex, […] of small molecule/DMSO and incubated at room temperature for 20 minutes. Following the incubation, […] of RNase A was added, and the reaction was incubated at 37° C. for 1 hour in a thermal cycler with a heated lid (Eppendorf). 4 μL timepoint aliquots were taken at 0, 5, 10, 30, and 60 minutes, 4 μL of 2×RNA loading dye was added to each aliquot (ThermoFischer Scientific), and samples were stored at −80° C. prior to gel analysis. Reactions were analyzed on pre-cast 15% PAGE-Urea gels (Invitrogen) in 1×TBE buffer. Aliquots were thawed from −80° C. storage and heated to 95° C. for 15 minutes prior to gel loading and […] were loaded in each well. Gels were run for 45 minutes at 180 V, stained with Diamond™ Nucleic Acid dye (Promega), and visualized on an iBright 500 (ThermoFisher). DMSO controls were ran with every set of 4 small molecules to ensure consistency of enzyme activity and RNA integrity. Gel band intensity of the MALAT1 triple helix and DNA loading control were quantified using ImageJ software. (Rueden C T, et al. (2017) BMC Bioinformatics. 18(1):529).
To quantify time-dependent endonucleolytic degradation for each sample, the intensity was normalized using Equation (3), and fold-difference was calculated as listed in Equation (4) as previously reported. (Donlic A, et al. (2020) Nucleic Acids Res. 48(14):7653-7664).
where y is normalized RNA area for a specific time point and the sample (tx), TH (triple helix). Area is the raw band intensity for the RNA in the lane corresponding to time point x for that sample, LC (loading control). Area (t0) is the raw band intensity for the DNA in the lane corresponding to the 0 minute time point for the sample, and LC Area (tx) is the raw band intensity for the DNA in the lane corresponding to time point x for that sample.
where y is fold-difference of the exonucleolytic degradation for the specific sample, with normalized areas for its specific time point x and time point 0 calculated as described in Equation (3). Percent RNA degraded was calculated for every time point using Equation (5).
% RNA degraded=(Normalized area (t0)−Normalized area (tx))*100 (Equation 5)
Experimental results shown in FIG. 6C are plotted as three independent replicates and standard deviation between replicates as error bars. Relative fold change between treated condition and DMSO was calculated from Equation (6).
The library was screened using a more biologically relevant in vitro enzymatic degradation assay. Previous work evaluated the effect on triplex degradation of various ionic buffer conditions (Ageeli A A, et al. (2018) Nucleic Acids Res. 47(3):1468-1481) and a sub-set of DPF small molecules (Donlic A, et al. (2020) Nucleic Acids Res. 48(14):7653-7664) using E. coli RNase R exonuclease as it degrades from 3′ to 5′, reporting on the availability of the poly(A) tail normally sequestered in the triplex construct. […]

MALAT1 triple helix [2] = test: RiboGreen indicator displacement assay (IDA); assay type: binding, human; conditions: for affinity for the MALAT1 triple helix (in words): RiboGreen IDA
Description: The protocol was adapted from a previously reported procedure. (Donlic A, et al. (2020) Nucleic Acids Res. 48(14):7653-7664). A serial dilution of the MALAT1 triple helix RNA was performed in HEPES buffer (20 mM HEPES-KOH, 52.6 mM KCl, 0.1 mM MgCl2, pH=7.4) in a 96 well plate in triplicate. […] of each dilution were transferred to a 384 well plate followed by […] of a 500 nM solution of RiboGreen dye in the same buffer (Invitrogen™). The plates were excited at 487 nm (8 nm slit) and emission was recorded at 530 nm (8 nm slit, focal height 11.3 mm) using a CLARIOstar plate reader (BMG labtech). The affinity of the dye for the RNA construct was determined by fitting the raw fluorescence in GraphPad Prism version 8.3.1 for Macintosh (GraphPad Software, La Jolla California USA, (www.graphpad.com)) by fitting to the Log[Agonist] vs. response—variable slope model that using Equation (1) below.
where Y is normalized % change in fluorescence intensity, X is RNA concentration, Bottom is lowest fluorescence % change and Top is highest fluorescence % change. Affinity of the dye for the RNA construct was used as the ideal RNA concentration (174 nM) for small molecule titrations.
A serial dilution of small molecule (0, 0.5 μM, 1.0 μM, 2.5 μM, 5 μM, 7.5 μM, 10.0 μM, 12.5 μM, 25 μM, 50 µM, 75 μM, 100 μM, 125 μM, 150 μM, 250 μM, 500 µM) was performed in HEPES buffer (20 mM HEPES-KOH, 52.6 mM KCl, 0.1 mM MgCl2, pH=7.4) in a 96 well plate in triplicate. Then, 8 μL of each dilution were transferred to a 384 well plate, followed by 8 μL of a 174 nM solution of MALAT1 RNA and […] of RiboGreen™ (Invitrogen™). The RNA was previously annealed by heating to 95° C. for 5 minutes and cooling to 0° C. on ice for 30 minutes. The 384 well plates were shaken for 5 minutes, centrifuged at 4000 rpm for 1 minute, and incubated in the dark for 20 minutes. The plates were excited at 487 nm (8 nm slit) and emission was read at 525 nm (8 nm slit, focal height […]) using a CLARIOstar plate reader (BMG Labtech). Percent fluorescence indicator displacement (% FID) was calculated by subtracting and, subsequently, dividing by the blank wells with RNA-dye complex and no small molecule as shown in Equation (2).
Where Fo is the fluorescence of the blank well with RNA+dye and no small molecule and F is the fluorescence of the well with all three components (RNA+dye+small molecule).
Each technical triplicate was averaged, and the resulting FID values were averaged between three independent experiments. The binding curve and Log (CD50) value was obtained by using a non-linear fit curve (Log[Agonist] vs. response) with variable slope at four parameters (GraphPad Prism Software version for Macintosh 8.3.1, La Jolla, California, USA (www.graphpadprism.com)) as shown in Equation 1. Reported values are averages of three independent experiments=standard deviation.
Given the structural differences between secondary and tertiary structures, where more continuous and complex base-pairing occurs, the design and optimization of an RNA triple helix IDA amenable to HTS was the first focused on. The utility of RiboGreen™ dye was confirmed as an indicator. The RiboGreen™ structure is proprietary, and stoichiometry is thus unconfirmed. Upon assay optimization, the 21-member library was screened using a 16-point titration in three independent replicates (FIG. 2A, FIG. 12A-FIG. 12U).

MALAT1 triple helix [3] = test: Differential scanning fluorimetry (DSF), thermal stability; assay type: binding, human; conditions: for effect on MALAT1 triplex thermal stability (in words): DSF
Description: Differential scanning fluorimetry experiments were performed as previously reported. (Donlic A, et al. (2020) Nucleic Acids Res. 48(14):7653-7664). All experiments were performed in white 96 well plates in a LightCycler® 96 (Roche). In a typical experiment, 4 μM of RNA was annealed in the same buffer used for indicator displacement assays (20 mM HEPES-KOH, 52.6 mM KCl, 0.1 mM MgCl2, pH=7.4) by heating at 95° C. for 3 minutes, snap-cooling on ice for 10 minutes, and leaving the solution at room temperature for 1 hr. Then, 42 μL of this solution was aliquoted to wells and 5 μM of ligand was added (2.5 μL of water, 2.0 μL of DMSO, 0.5 μL of 500 μM small molecule stock). The mixture was left to incubate at room temperature for 5 minutes, after which 3 μL of a 20 μM Quant-iT™ RiboGreen™ (ThermoFisher Scientific) dye stock solution in appropriate buffer was added to each well. The 96 well plate was then sealed with an optically clear foil and centrifuged for 1 minute at 4000 rpm prior to being placed in the instrument. The light cycler program was created by selecting the melting curve method; fluorescence intensity was monitored using the SYBR Green I/HRM dye filter combination (465-510 nm) from 37-98° C. at a ramp rate of 0.01° C./second with 150 acquisitions per° C. Melting profiles were obtained by Tm analysis in the LightCycler® 96 software (SW 1.1).
The MALAT1 triple helix is known to confer stability to the full-length transcript and protect it from RNase-mediated degradation, ultimately resulting in transcript accumulation and aggregation in nuclear speckles. (Brown J A, (2020) WIREs RNA. 11(6):e1598; Wilusz J E, et al. (2012) Genes Dev. 26(21):2392-2407; Brown J A, et al. (2014) Nat Struct Mol Biol. 21(7):633-640; Tycowski K T, et al. (2016) Cell Rep. 15(6):1266-1276). To better understand how the diminazene focused library affects the MALAT1 triplex stability, the entire library was evaluated via differential scanning fluorimetry (DSF) (FIG. 5A). This method allows for rapid assessment of small molecule effects on nucleic acid thermal stability (Silvers R, et al. (2015) Chembiochem. 16(7):1109-1114) in a 96-well plate format, substantially reducing the time and cost associated with traditional UV-melting experiments.
The bi-phasic melting profile distinctive of triple helices is attributed to an initial melting of the Hoogsteen triple base pairs followed by dissociation of Watson-Crick-Franklin base pairs (FIG. 16A-FIG. 16E). (Pilch D S, et al. (1995) Biochemistry. 34(49):16107-16124). At an equimolar ratio of RNA:small molecule, a range of thermal stabilization of the first (Tm1) was observed, but not the second (Tm2) melting peak (FIG. 5A, FIG. 13A-FIG. 13Z). At increasing small molecule concentration, a dose-dependent increase in ΔTm1 but not in ΔTm2 was observed, indicating small molecule interactions in the triplex region and not in the upper stem region (FIG. 15).

[4] = 5-minute time point, relative to DMSO control

SMILES	stabilizer / destabilizer classification by RNase A degradation (MALAT1 triple helix [1]; [4])	affinity for the MALAT1 triple helix (in words) (MALAT1 triple helix [2])	effect on MALAT1 triplex thermal stability (in words) (MALAT1 triple helix [3])	further results
N=C(NCc1ccccc1)c1cccc(/N=N/Nc2cccc(C(=N)NCc3ccccc3)c2)c1 [DMZ-M4]	destabilizers	mediocre affinity	increases in thermal stability; also recorded: mediocre	increase of the amount of MALAT1 degraded at 5 minutes (MALAT1 triple helix [1]; [4]): 2 fold and > 2 fold
N=C(NCCc1cccnc1)c1cccc(/N=N/Nc2cccc(C(=N)NCCc3cccnc3)c2)c1 [DMZ-M3]	–	moderate affinity	negligible thermal stabilization	–
CN(C)c1ccc(CN2CCC(CCNC(=N)c3ccc(/N=N/N(C)c4ccc(C(=N)NCCC5CCN(Cc6ccc(N(C)C)cc6)CC5)cc4)cc3)CC2)cc1 [DMZ-NMe-P38]	–	–	–	stabilizing / destabilizing compound (as listed 'in an aspect') (MALAT1 triple helix [1]): destabilizing
N=C(NCc1ccc(Cl)cc1)c1ccccc1/N=N/Nc1ccccc1C(=N)NCc1ccc(Cl)cc1 [DMZ-O5]	much stronger destabilizing effect	–	–	stabilizing / destabilizing compound (as listed 'in an aspect') (MALAT1 triple helix [1]): stabilizing; also recorded: destabilizing
N=C(NCc1ccccc1)c1ccccc1/N=N/Nc1ccccc1C(=N)NCc1ccccc1 [DMZ-O4]	–	no affinity	–	–
N=C(N)c1ccc(/N=N/Nc2ccc(C(=N)N)cc2)cc1 [DMZ-P0, diminazene, reference compound]	destabilizers	–	increases in thermal stability	–
N=C(NCc1ccc(Cl)cc1)c1ccc(/N=N/Nc2ccc(C(=N)NCc3ccc(Cl)cc3)cc2)cc1 [DMZ-P5]	–	–	–	fold higher affinity, para scaffold versus ortho scaffold (MALAT1 triple helix [2]; subunit R-5: DMZ-P5 versus DMZ-O5): 13 fold
N=C(NCc1ccco1)c1cccc(/N=N/Nc2cccc(C(=N)NCc3ccco3)c2)c1 [DMZ-M15]	–	moderate affinity	negligible thermal stabilization	–
CN(C)CCCNC(=N)c1ccc(/N=N/Nc2ccc(C(=N)NCCCN(C)C)cc2)cc1 [DMZ-P1]	destabilizers	–	increases in thermal stability	strength class of stabilizer / destabilizer (change in degradation) (MALAT1 triple helix [1]; [4]): weak destabilizer (weak destabilizer (<50% increase in degradation)); effect on Tm1 (ΔTm1, first melting peak) (MALAT1 triple helix [3]; equimolar RNA:small molecule, versus DMSO vehicle): approximately 6.1 °C
CN(/N=N/c1ccc(C(=N)NCCC2CCN(Cc3ccccc3)CC2)nc1)c1ccc(C(=N)NCCC2CCN(CC3C=CC=CC3)CC2)nc1 (stereo not shown) [DMZ-NMe-mPy-P1]	–	–	–	stabilizing / destabilizing compound (as listed 'in an aspect') (MALAT1 triple helix [1]): destabilizing
CCCCNC(=N)c1ccc(/N=N/Nc2ccc(C(=N)NCCCC)cc2)cc1 [DMZ-P17]	–	moderate affinity	negligible thermal stabilization	–
